GI50 and TGI data for 7 molecules are collected here from PubChem BioAssay (NCI).

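Cells were grown in 96-well plates and exposed to each compound for 48 hours at five concentrations; endpoints were interpolated linearly between bracketing concentrations, or set to the highest concentration if not reached. GI50: concentration for 50% inhibition of growth. TGI: total growth inhibition.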

Test systems include 786-0 renal; HCC-2998 colon; HT29 colon; MDA-MB-435; NCI-H23 lung; OVCAR-4 ovarian; OVCAR-5 ovarian; SK-MEL-5 melanoma; SK-OV-3 ovarian; UO-31 renal.
Assay in all cases: NCI tumour cell line growth inhibition, 48 h

On to `CO/N=C(\COc1ccc2c(c1)oc(=O)c1cc(OC)ccc12)c1cccc(OC)c1`, for which the GI50 in the experiment on 786-0 renal, in the experiment on HCC-2998 colon, in the experiment on HT29 colon, with MDA-MB-435, in the experiment on NCI-H23 lung and in the experiment with OVCAR-4 ovarian was greater than 100 µM each time. In addition, the GI50 in the experiment with OVCAR-5 ovarian, in the experiment on SK-MEL-5 melanoma, in the experiment on SK-OV-3 ovarian and in the experiment on UO-31 renal was greater than 100 µM in each case. Besides, the TGI in the experiment with 786-0 renal, in the experiment on HCC-2998 colon, in the experiment with HT29 colon, in the experiment on MDA-MB-435, in the experiment on NCI-H23 lung and in the experiment on OVCAR-4 ovarian was greater than 100 µM in each case. For the same molecule, the TGI with OVCAR-5 ovarian, with SK-MEL-5 melanoma, in the experiment on SK-OV-3 ovarian and in the experiment with UO-31 renal was greater than 100 µM throughout.
For `COc1ccc2c(c1)C(=O)/C(=C/c1ccc([N+](=O)[O-])s1)O2`, the GI50 is 1.47 µM in the experiment on 786-0 renal; 0.514 µM with HCC-2998 colon; 0.502 µM in the experiment with HT29 colon; 0.314 µM in the experiment on MDA-MB-435; 0.709 µM in the experiment with NCI-H23 lung; 0.34 µM in the experiment with OVCAR-4 ovarian. The GI50 in the experiment on OVCAR-5 ovarian was 1.6 µM; in the experiment with SK-MEL-5 melanoma it was 0.326 µM; with SK-OV-3 ovarian, 2.68 µM; in the experiment with UO-31 renal, 0.232 µM. In addition, the TGI in the experiment on 786-0 renal was 6.73 µM; with HCC-2998 colon, 2.05 µM; with HT29 colon, 2.67 µM; in the experiment with MDA-MB-435, 1.76 µM; in the experiment with NCI-H23 lung, 3.53 µM; in the experiment on OVCAR-4 ovarian, 1.14 µM. Also, the TGI amounted to 3.34 µM with OVCAR-5 ovarian, 1.04 µM in the experiment on SK-MEL-5 melanoma, 7.77 µM with SK-OV-3 ovarian and 0.614 µM in the experiment with UO-31 renal.
Turning to `CO/N=C(\COc1ccc2c(c1)oc(=O)c1cc(OC)ccc12)c1ccc(F)cc1`, the GI50 was 14.3 µM in the experiment with 786-0 renal; 23.6 µM in the experiment with HCC-2998 colon; 16.7 µM in the experiment on HT29 colon; 66.1 µM with MDA-MB-435; 37.6 µM with NCI-H23 lung; 21.2 µM with OVCAR-4 ovarian. Also, the GI50 was 29.4 µM with OVCAR-5 ovarian, 55.6 µM in the experiment on SK-MEL-5 melanoma, 48.5 µM in the experiment with SK-OV-3 ovarian and 12.7 µM in the experiment with UO-31 renal. In addition, the TGI is 28.7 µM in the experiment with 786-0 renal; 72.7 µM in the experiment on HCC-2998 colon; 66.8 µM in the experiment on HT29 colon; greater than 100 µM in the experiment with MDA-MB-435; greater than 100 µM in the experiment on NCI-H23 lung; 58.3 µM with OVCAR-4 ovarian. The TGI was 83.4 µM in the experiment on OVCAR-5 ovarian, greater than 100 µM in the experiment with SK-MEL-5 melanoma, greater than 100 µM with SK-OV-3 ovarian and 32.3 µM in the experiment on UO-31 renal.
As for `O=c1[nH]ccc2nc(-c3ccc(CN4CCC(c5nc(-c6ccccn6)n[nH]5)CC4)cc3)c(-c3ccccc3)cc12`, the GI50 was 0.737 µM in the experiment with 786-0 renal; 22.2 µM in the experiment with HCC-2998 colon; 1.98 µM in the experiment with HT29 colon; 17.4 µM in the experiment with MDA-MB-435; 42.4 µM in the experiment on NCI-H23 lung; greater than 80.7 µM in the experiment on OVCAR-4 ovarian. The GI50 in the experiment on OVCAR-5 ovarian is 37.8 µM; in the experiment with SK-MEL-5 melanoma, 6.03 µM; in the experiment on SK-OV-3 ovarian, 0.124 µM; in the experiment on UO-31 renal, 0.975 µM. Further, the TGI was 18.1 µM in the experiment on 786-0 renal; greater than 100 µM in the experiment with HCC-2998 colon; greater than 100 µM in the experiment with HT29 colon; greater than 100 µM with MDA-MB-435; greater than 100 µM in the experiment on NCI-H23 lung; greater than 100 µM in the experiment with OVCAR-4 ovarian. Further, the TGI in the experiment on OVCAR-5 ovarian is greater than 100 µM; in the experiment with SK-MEL-5 melanoma, 24 µM; with SK-OV-3 ovarian, greater than 100 µM; in the experiment on UO-31 renal it was greater than 100 µM.
For `O=c1oc2ccc(F)cc2c(=O)n1-c1ccc(Cl)cc1F`, the GI50 was 2.8 µM with 786-0 renal; 2.89 µM in the experiment on HCC-2998 colon; 3.29 µM in the experiment with HT29 colon; 0.674 µM with MDA-MB-435; 0.604 µM with NCI-H23 lung; 0.737 µM in the experiment on OVCAR-4 ovarian. Also, the GI50 with OVCAR-5 ovarian is 3.73 µM; in the experiment on SK-MEL-5 melanoma it was 0.29 µM; with SK-OV-3 ovarian, 0.584 µM; in the experiment on UO-31 renal, 0.264 µM. In addition, the TGI in the experiment on 786-0 renal is 8.85 µM; in the experiment on HCC-2998 colon, 10.8 µM; in the experiment on HT29 colon, greater than 34.2 µM; in the experiment with MDA-MB-435, 5.48 µM; in the experiment on NCI-H23 lung, 5.16 µM; with OVCAR-4 ovarian it was 7.68 µM. Besides, the TGI in the experiment with OVCAR-5 ovarian is greater than 100 µM; in the experiment on SK-MEL-5 melanoma it was 0.89 µM; in the experiment with SK-OV-3 ovarian, 2.58 µM; in the experiment on UO-31 renal it was 2.52 µM.
For the molecule `COc1cc(OC)c2cc(C(=O)O)c(=O)oc2c1`, the GI50 in the experiment with 786-0 renal was greater than 95.4 µM; in the experiment with HCC-2998 colon, greater than 100 µM; with HT29 colon, greater than 100 µM; in the experiment on MDA-MB-435, greater than 100 µM; in the experiment with NCI-H23 lung, greater than 100 µM; with OVCAR-4 ovarian, greater than 100 µM. Further, the GI50 with OVCAR-5 ovarian is greater than 100 µM; in the experiment with SK-MEL-5 melanoma, greater than 100 µM; with SK-OV-3 ovarian, greater than 100 µM; with UO-31 renal, greater than 61.7 µM. In addition, the TGI in the experiment on 786-0 renal, in the experiment with HCC-2998 colon, in the experiment on HT29 colon, with MDA-MB-435, in the experiment with NCI-H23 lung and with OVCAR-4 ovarian was greater than 100 µM each time. Further, the TGI in the experiment on OVCAR-5 ovarian, in the experiment with SK-MEL-5 melanoma, in the experiment with SK-OV-3 ovarian and with UO-31 renal was greater than 100 µM in each case.
Turning to `COc1cc(Nc2ncc3c(C)nc(-c4cccc(Oc5ccccc5)c4)n3n2)cc(OC)c1OC`, the GI50 with 786-0 renal is 6.2 µM; in the experiment with HCC-2998 colon, 5.15 µM; in the experiment with HT29 colon it was 5.71 µM; in the experiment with MDA-MB-435, 6.26 µM; in the experiment with NCI-H23 lung, 6.68 µM; with OVCAR-4 ovarian, 4.78 µM. Besides, the GI50 in the experiment on OVCAR-5 ovarian was 11.6 µM; with SK-MEL-5 melanoma, 3.28 µM; with SK-OV-3 ovarian it was 1.74 µM; in the experiment with UO-31 renal it was 1.39 µM. The TGI was greater than 25 µM in the experiment with 786-0 renal; greater than 25 µM in the experiment on HCC-2998 colon; 16.3 µM with HT29 colon; greater than 25 µM with MDA-MB-435; greater than 25 µM in the experiment with NCI-H23 lung; greater than 25 µM with OVCAR-4 ovarian. The TGI in the experiment with OVCAR-5 ovarian is greater than 25 µM; in the experiment with SK-MEL-5 melanoma, 6.74 µM; with SK-OV-3 ovarian it was greater than 25 µM; in the experiment with UO-31 renal, 18.2 µM.
